For data set [1] the following is noted: laser diffraction, dry module, 1 bar. Here is the method: The particles obtained in Example 1 and Comparative Examples 1 and 2 were analyzed for particle size distribution using a particle size analyzer (Mastersizer 2000®, Malvern) based on laser diffraction. The samples were injected at a pressure of 1 bar with a dry module (Scirocco 2000®, Malvern). Each particle was measured for particle size (d0.1), particle size (d0.5) and particle size (d0.9).

The conditions of data set [2]: crystalline form; see U.S. Pat. No. 6,429,210; cited from earlier work.

As for `COC(=O)[C@H](c1ccccc1Cl)N1CCc2sccc2C1` [Comp. Example 1, clopidogrel bisulfate], in data set [1], the “d(0.1)” value worked out at 1.052 μm, the “d(0.5)” value was 6.055 μm and the “d(0.9)” value came out at 13.724 μm.

In the case of `COC(=O)[C@H](c1ccccc1Cl)N1CCc2sccc2C1` [Comp. Example 2, clopidogrel bisulfate], in data set [1], the “d(0.1)” value was 8.475 μm, the “d(0.5)” value is 85.770 μm and the “d(0.9)” value was 168.393 μm.

Regarding `COC(=O)[C@H](c1ccccc1Cl)N1CCc2sccc2C1` [Example 1, clopidogrel bisulfate], in data set [1], the “d(0.1)” value was 52.536 μm, the “d(0.5)” value was determined as 74.567 μm and the “d(0.9)” value was found to be 106.074 μm.

`COC(=O)[C@H](c1ccccc1Cl)N1CCc2sccc2C1` [Form I, clopidogrel bisulfate]: the density in data set [2] is given as 1.505 g/cm^2.

In the case of `COC(=O)[C@H](c1ccccc1Cl)N1CCc2sccc2C1` [Form II, clopidogrel bisulfate], in data set [2], the density is given as 1.462 g/cm^2.

Values taken from US20140154330A1, “SPHERICAL PARTICLES OF CLOPIDOGREL BISULFATE, PHARMACEUTICAL COMPOSITION COMPRISING THE SAME, AND PREPARATION METHOD THEREOF” (ASTECH. CO., LTD., priority 2011, published 2014).
